Several values for one entry are separate records, joined by “and”; a condition that tells them apart may be missing. Equal entries are not always repeated.
Assays:
pAKT (mTORC2) = assay: Stimulated blood biomarker assay in monocytes (CD14+) for pAKT (mTORC2 inhibition); type: in vivo, human; settings: for pAKT median inhibition from baseline: 30 mg; for Blood pAKT median inhibition: 45 mg
Description: (§1) Central laboratories conducted serial stimulated blood biomarker assays in monocytes (CD14+) for p4E-BP1 and pPKB (also known as pAKT) for assessment of mTORC1 and mTORC2 inhibition, respectively. Monthly changes from baseline for chromogranin A (CgA), and for other serum hormones if elevated, were assayed locally.

p4E-BP1 (mTORC1) = assay: Stimulated blood biomarker assay in monocytes (CD14+) for p4E-BP1 (mTORC1 inhibition); type: in vivo, human
Description: as §1

[1] = test system: well-differentiated NET of non-pancreatic gastrointestinal or unknown origin; assay: FDG PET SUV change from baseline to day 15 of cycle 1; type: in vivo, human
Description: (§2) Metabolic changes were assessed by percent change in total of standardized uptake value (SUV) of 2-^18F-fluoro-2-deoxyglucose (FDG) with PET scanning from baseline to day 15 in cycle 1. Carcinoid symptoms of flushing and diarrhea were documented monthly with a non-validated symptom questionnaire that was completed at each study visit. Patients reported whether they had experienced specific events, and the severity and/or frequency of these events. Symptom improvement was defined as ≥50% reduction in frequency and/or a 1-grade reduction in severity for each from baseline.

[2] = test system: well-differentiated NET of non-pancreatic gastrointestinal or unknown origin; assay: Tumor response by investigator (RECIST version 1.1), PFS and OS; type: in vivo, human
Description: Tumors were restaged by the principal investigator at each site using computed tomography (CT), positron emission tomography (PET)-CT, or magnetic resonance imaging scans after every 2 cycles through cycle 6, and every 3 cycles thereafter, using Response Evaluation Criteria In Solid Tumors (RECIST) version 1.1 criteria for response.
This phase 1/2 study was not powered for inferential statistics and mostly descriptive statistics were used. All patients dosed with CC-223 were included in the safety analysis. The efficacy analysis included all patients completing at least one cycle of drug who had both baseline and one post-baseline tumor efficacy assessment, unless otherwise specified. Categorical baseline variables including tumor type-specific characteristics were summarized using frequency counts and percentage. Continuous demographic and baseline characteristic variables were summarized by descriptive statistics. A Wilcoxon signed rank test was used to analyse change from baseline in serum hormone levels at selected scheduled visits.
Best overall tumor response by investigator assessment was summarized using frequency tabulation. Waterfall plots were used to show best percentage change from baseline in the sum of length (longest diameter) of target lesions.
Relationship between PFS and NET-specific assessments such as serum hormone levels and carcinoid symptoms were investigated. The Kaplan-Meier estimate of median PFS with its two-sided 95% confidence interval [CI] was provided for each baseline category of the selected biomarkers. Kaplan-Meier plots of PFS were created by category. The raw P value of the log rank test comparing survival distribution of PFS between categories was also provided.

[3] = test system: carcinoid symptoms of flushing and diarrhea; assay: Carcinoid symptom questionnaire (flushing, diarrhea); type: in vivo, human
Description: as §2

[4] = 28-day GLP toxicology study, rat; type: in vivo
Description: (§3) A dose of 7.5 mg/day is proposed as the starting dose in this protocol. This dose is based on the recommendations in the March 2010 FDA Guidance for Industry entitled, “S9 Nonclinical Evaluation for Anticancer Pharmaceuticals,” where a start dose for first administration in humans should be either one-tenth the STD10 in rodents, or one-sixth of the HNSTD if the nonrodent is the most appropriate species. The conversion factors from the July 2005 FDA Guidance for Industry entitled, “Estimating the Maximum Safe Starting Dose in Initial Clinical Trials for Therapeutics in Adult Healthy Volunteers,” were used to convert the animal dose to the HED. The dose was converted to milligrams based on a 60-kg human body weight.
(§4) Species Animal Dose HED (mg/kg) HED (mg) Safety Factor Start Dose (mg) […]
(§5) Since the dog was identified as the most sensitive species in the 28-day GLP toxicology studies, the start dose for the study would be 8.2 mg/day. Based on available dosage strengths of the IP, a dose of 7.5 mg/day of CC-223 is deemed to be an acceptable starting dose for this initial trial in […]
(§6) Part B will consist of approximately 230 patients with selected tumor types to further assess the safety profile and provide preliminary efficacy information. […]

[5] = 28-day GLP toxicology study, dog; type: in vivo
Description: as §3, §4, §5, §6

[6] = test system: mTORC1 and mTORC2 biomarkers; assay: Target biomarker inhibition at 15 mg dose level (predicted, not tested); type: in vivo, human; settings: 15 mg dose level
[7] = design: method as in PMID 26177599; settings: patients with advanced solid tumors; oral once daily; cited from earlier work
[8] = test system: human carcinoid xenografts that secrete serotonin; design: method as in PMID 28864682; settings: mice bearing human carcinoid xenografts; cited from earlier work
[9] = Rat; trial protocol; cited from earlier work
[10] = Dog; trial protocol; cited from earlier work
[11] = design: method as in doi:10.1200/jco.2013.31.15_suppl.2606; settings: non-small cell lung cancer and hepatocellular carcinoma cohorts dosed at 45 mg; cited from earlier work
[12] = across both dose level cohorts (45 mg or 30 mg), 1.5 hours after multiple dosing on day 15

CO[C@H]1CC[C@H](N2C(=O)CNc3ncc(-c4ccc(C(C)(C)O)nc4)nc32)CC1 [CC-223]
pAKT median inhibition from baseline (pAKT (mTORC2); after the first dose): 59%
pAKT median inhibition from baseline (pAKT (mTORC2); day 15 after multiple doses): 79%
Blood pAKT median inhibition (pAKT (mTORC2); 1.5 hours after a single dose (day 1)): 83%
Blood pAKT median inhibition (pAKT (mTORC2); after multiple doses (day 15)): 76%
pAKT median biomarker inhibition relative to baseline (pAKT (mTORC2); [12]): > 70%
p4E-BP1 median inhibition (p4E-BP1 (mTORC1); 30 mg, after multiple doses): 26%
p4E-BP1 median inhibition (p4E-BP1 (mTORC1); 30 mg, following a single dose): 9%
p4E-BP1 median inhibition (p4E-BP1 (mTORC1); 45 mg, 1.5 hours after a single dose): 37%
p4E-BP1 median inhibition (p4E-BP1 (mTORC1); 45 mg, after multiple doses): 47%
p4E-BP1 median biomarker inhibition relative to baseline (p4E-BP1 (mTORC1); [12]): > 26%
Patients with at least a 25% reduction in SUV ([1]; 18 patients): 38.3%
Patients with at least a 15% reduction in FDG uptake ([1]; 21 patients): 44.7%
Mean percent decrease from baseline to day 15 in [18F]-FDG PET SUV ([1]; 31 patients, standard deviation 35.2%, P<0.0001): 32.0%
Progressive disease (PD) ([2]; 1 of 41 evaluable patients, investigator assessment): 2.4%
Partial response (PR) ([2]; 3 of 41 evaluable patients, investigator assessment): 7% and 7.3%
Objective response rate (CR+PR) ([2]; 41 evaluable patients, 95% CI 1.5–19.9%): 7.3%
Disease control rate (CR+PR+SD) ([2]; 41 evaluable patients, 95% CI 76.9–97.3%): 90% and 90.2%
Complete response (CR) ([2]; 41 evaluable patients, investigator assessment): no patient
Patients with tumor shrinkage of any magnitude relative to baseline ([2]; 95% CI 57.1–85.8%): 73.2%
Median PFS in patients without carcinoid symptom improvement ([2]; ad hoc exploratory analysis, 95% CI 35.6–104.4): 48.1 weeks and 48 weeks
Median PFS in patients with carcinoid symptom improvement ([2]; ad hoc exploratory analysis, 95% CI 72.6–not estimable): 108.4 weeks and 108 weeks
PFS rate ([2]; at 6 months): 85%
PFS rate ([2]; at 10 months): 64%
OS rate ([2]; at 48 weeks): 0.97
Duration of SD (min–max) ([2]; in vivo): 50 to 1519 days
Median duration of SD ([2]; in vivo): 297 days
Patients with duration of SD longer than a year ([2]; in vivo): 17 patients
Median OS ([2]; treated population): not assessable
Median progression-free survival (PFS) ([2]; treated population, 95% CI 10.4–28.5 months): 19.5 months
Symptom reduction at any time during the study: both flushing and diarrhea ([3]; 5 of 13 affected patients): 39%
Symptom reduction at any time during the study: flushing ([3]; 8 of 16 affected patients): 50%
Symptom reduction at any time during the study: diarrhea ([3]; 9 of 22 affected patients): 41%
HED (human equivalent dose) of STD10 ([4]; 60-kg human body weight): 96 mg
HED (human equivalent dose) of STD10 ([4]; FDA conversion factors): 1.6 mg/kg
HED (human equivalent dose) of HNSTD ([5]; 60-kg human body weight): 49 mg
HED (human equivalent dose) of HNSTD ([5]; FDA conversion factors): 0.81 mg/kg
Target biomarker inhibition [6]: modest
Maximum tolerated dose (MTD) [7]: 45 mg/day
Volume of tumors that progressed on rapamycin, after treatment [8]: remained stable or decreased in volume from baseline
STD10 (severely toxic dose in 10% of the animals tested) [9]: 10 mg/kg
HNSTD (highest non-severely toxic dose) [10]: 1.5 mg/kg
Patients with dose reductions [11]: > 50%

From article PMC6748410, “A phase 2 study of an oral mTORC1/mTORC2 kinase inhibitor (CC-223) for non-pancreatic neuroendocrine tumors with or without carcinoid symptoms” (PLoS ONE, 2019)
